In patent publication US12655116B2, “Substituted isophthalic acid diamides” (Bayer Aktiengesellschaft, priority 2020, dated 2026):

How the values were obtained:
[1] = system: ABUTH; test: Pre-emergence herbicidal action against ABUTH; assay type: in vivo, Abutilon theophrasti; conditions: Abutilon theophrasti, 504 h; for pest or weed control at 80 g/ha: scored visually after 3 weeks vs untreated controls (100% = plants have died, 0% = like control plants); for pest or weed control at 20 g/ha: dosage 20 g/ha, scored visually after 3 weeks vs untreated controls, 100% = plants have died, 0% = like control plants, read-out: Pre-emergence action against ABUTH (herbicidal activity in percent)
Procedure, shortened: (§1)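 Herbicidal effect was assessed 3 weeks after treatment by visual comparison with untreated controls, 100% denoting dead plants. Aqueous WP or EC preparations had been applied at 600 to 800 l/ha with 0.2% wetting agent to the soil covering freshly sown seeds.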

[2] = system: ALOMY; test: Pre-emergence herbicidal action against ALOMY; assay type: in vivo, Alopecurus myosuroides; conditions: Alopecurus myosuroides, 504 h, pre-emergence; for pest or weed control at 80 g/ha: scored visually after 3 weeks vs untreated controls (100% = plants have died, 0% = like control plants); for pest or weed control at 20 g/ha: scored visually after 3 weeks, 100% = plants have died, 0% = like control plants
Procedure, shortened: as §1

[3] = system: AMARE; test: Pre-emergence herbicidal action against AMARE; assay type: in vivo, Amaranthus retroflexus; conditions: Amaranthus retroflexus, 504 h, scored visually after 3 weeks vs untreated controls, 100% = plants have died, 0% = like control plants
Procedure, shortened: as §1

[4] = system: AVEFA; test: Pre-emergence herbicidal action against AVEFA; assay type: in vivo, Avena fatua; conditions: Avena fatua, 504 h; 80 g/ha, pre-emergence
Procedure, shortened: as §1

[5] = system: ECHCG; test: Pre-emergence herbicidal action against ECHCG; assay type: in vivo, Echinochloa crus-galli; conditions: Echinochloa crus-galli, 504 h
Procedure, shortened: as §1

[6] = system: LOLRI; test: Pre-emergence herbicidal action against LOLRI; assay type: in vivo, Lolium rigidum; conditions: Lolium rigidum, 504 h, 80 g/ha
Procedure, shortened: as §1

[7] = system: MATIN; test: Pre-emergence herbicidal action against MATIN; assay type: in vivo, Matricaria inodora; conditions: Tripleurospermum inodorum, 504 h; for pest or weed control at 20 g/ha: dosage 20 g/ha; for pest or weed control at 80 g/ha: dosage 80 g/ha
Procedure, shortened: as §1

[8] = system: PHBPU; test: Pre-emergence herbicidal action against PHBPU; assay type: in vivo, Pharbitis purpurea; conditions: Ipomoea purpurea, 504 h, dosage 80 g/ha
Procedure, shortened: as §1

[9] = system: SETVI; test: Pre-emergence herbicidal action against SETVI; assay type: in vivo, Setaria viridis; conditions: Setaria viridis, 504 h; for pest or weed control at 80 g/ha: dosage 80 g/ha
Procedure, shortened: as §1

[10] = system: VERPE; test: Pre-emergence herbicidal action against VERPE; assay type: in vivo, Veronica persica; conditions: Veronica persica, 504 h
Procedure, shortened: as §1

[11] = system: VIOTR; test: Pre-emergence herbicidal action against VIOTR; assay type: in vivo, Viola tricolor; conditions: Viola tricolor, 504 h; for pest or weed control at 80 g/ha: dosage 80 g/ha
Procedure, shortened: as §1

[12] = system: DIGSA; test: Pre-emergence herbicidal action against DIGSA; assay type: in vivo, Digitaria sanguinalis; conditions: Digitaria sanguinalis, 504 h; for pest or weed control at 20 g/ha: dosage 20 g/ha; for pest or weed control at 80 g/ha: dosage 80 g/ha
Procedure, shortened: as §1

[13] = system: ABUTH; test: Post-emergence herbicidal action against ABUTH; assay type: in vivo, Abutilon theophrasti; conditions: Abutilon theophrasti, 504 h, visual assessment about 3 weeks after treatment vs untreated controls; for pest or weed control at 20 g/ha: dosage 20 g/ha
Procedure, shortened: (§2)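 Herbicidal effect was scored visually in percent after about 3 weeks in the greenhouse. Plants had been raised in sandy loam and treated post-emergence at the one-leaf stage with formulated compound at 600 to 800 l/ha water plus 0.2% wetting agent.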

[14] = system: ALOMY; test: Post-emergence herbicidal action against ALOMY; assay type: in vivo, Alopecurus myosuroides; conditions: Alopecurus myosuroides, 504 h, visual assessment about 3 weeks after treatment vs untreated controls; for pest or weed control at 5 g/ha: dosage 5 g/ha; for pest or weed control at 20 g/ha: dosage 20 g/ha
Procedure, shortened: as §2

[15] = system: AMARE; test: Post-emergence herbicidal action against AMARE; assay type: in vivo, Amaranthus retroflexus; conditions: Amaranthus retroflexus, 504 h, 20 g/ha, visual assessment about 3 weeks after treatment, 100% = plants have died, 0% = like control plants
Procedure, shortened: as §2

[16] = system: AVEFA; test: Post-emergence herbicidal action against AVEFA; assay type: in vivo, Avena fatua; conditions: Avena fatua, 504 h, 20 g/ha, visual assessment about 3 weeks after treatment, 100% = plants have died, 0% = like control plants
Procedure, shortened: as §2

[17] = system: ECHCG; test: Post-emergence herbicidal action against ECHCG; assay type: in vivo, Echinochloa crus-galli; conditions: Echinochloa crus-galli, 504 h, dosage 20 g/ha
Procedure, shortened: as §2

[18] = system: LOLRI; test: Post-emergence herbicidal action against LOLRI; assay type: in vivo, Lolium rigidum; conditions: Lolium rigidum, 504 h, dosage 20 g/ha
Procedure, shortened: as §2

[19] = system: MATIN; test: Post-emergence herbicidal action against MATIN; assay type: in vivo, Matricaria inodora; conditions: Tripleurospermum inodorum, 504 h, dosage 20 g/ha
Procedure, shortened: as §2

[20] = system: PHBPU; test: Post-emergence herbicidal action against PHBPU; assay type: in vivo, Pharbitis purpurea; conditions: Ipomoea purpurea, 504 h, dosage 20 g/ha
Procedure, shortened: as §2

[21] = system: POLCO; test: Post-emergence herbicidal action against POLCO; assay type: in vivo, Polygonum convolvulus; conditions: Fallopia convolvulus, 504 h, dosage 20 g/ha
Procedure, shortened: as §2

[22] = system: SETVI; test: Post-emergence herbicidal action against SETVI; assay type: in vivo, Setaria viridis; conditions: Setaria viridis, 504 h; for pest or weed control at 20 g/ha: dosage 20 g/ha
Procedure, shortened: as §2

[23] = system: VERPE; test: Post-emergence herbicidal action against VERPE; assay type: in vivo, Veronica persica; conditions: Veronica persica, 504 h, 20 g/ha
Procedure, shortened: as §2

[24] = system: VIOTR; test: Post-emergence herbicidal action against VIOTR; assay type: in vivo, Viola tricolor; conditions: Viola tricolor, 504 h
Procedure, shortened: as §2

[25] = system: DIGSA; test: Post-emergence herbicidal action against DIGSA; assay type: in vivo, Digitaria sanguinalis; conditions: Digitaria sanguinalis, 504 h
Procedure, shortened: as §2

Structure (SMILES)	pest or weed control at 80 g/ha [1] [%]	pest or weed control at 20 g/ha [1] [%]	pest or weed control at 80 g/ha [2] [%]	pest or weed control at 20 g/ha [2] [%]	pest or weed control at 20 g/ha [3] [%]	pest or weed control at 80 g/ha [3] [%]	pest or weed control at 80 g/ha [4] [%]	pest or weed control at 80 g/ha [5] [%]	pest or weed control at 80 g/ha [6] [%]	pest or weed control at 20 g/ha [7] [%]	pest or weed control at 80 g/ha [7] [%]	pest or weed control at 80 g/ha [9] [%]	pest or weed control at 80 g/ha [11] [%]	pest or weed control at 20 g/ha [12] [%]	pest or weed control at 80 g/ha [12] [%]	pest or weed control at 20 g/ha [13] [%]	pest or weed control at 5 g/ha [14] [%]	pest or weed control at 20 g/ha [14] [%]	pest or weed control at 20 g/ha [15] [%]	pest or weed control at 20 g/ha [16] [%]	other results
CCNC(=O)c1c(Br)ccc(C(=O)Nc2nnnn2C)c1Cl [Example 1-178, 4-bromo-2-chloro-N^3-ethyl-N^1-(1-methyl-1H-tetrazol-5-yl)isophthalamide]	100	90	100	80	100	100	100	100	80	90	100	100	100	100	100	80	90	100	100	80	pest or weed control at 20 g/ha ([5]; 20 g/ha): 80%; pest or weed control at 80 g/ha [8]: 80%; pest or weed control at 20 g/ha ([10]; dosage 20 g/ha): 80%; pest or weed control at 80 g/ha ([10]; dosage 80 g/ha): 80%; pest or weed control at 5 g/ha ([13]; dosage 5 g/ha): 80%; pest or weed control at 20 g/ha [17]: 90%; pest or weed control at 20 g/ha [18]: 80%; pest or weed control at 20 g/ha [19]: 90%; pest or weed control at 20 g/ha [20]: 80%; pest or weed control at 20 g/ha [21]: 80%; pest or weed control at 20 g/ha [22]: 90%; pest or weed control at 20 g/ha [23]: 80%; pest or weed control at 5 g/ha [24]: 80%; pest or weed control at 20 g/ha [24]: 80%
Cn1nnnc1NC(=O)c1ccc(Br)c(C(=O)NC2CC2)c1Cl [Example 1-179]	100	80	100	80	100	100	100	100	90	90	100	100	100	100	100	80	90	90	100	90	pest or weed control at 20 g/ha ([9]; dosage 20 g/ha): 80%; pest or weed control at 20 g/ha ([11]; dosage 20 g/ha): 100%; pest or weed control at 20 g/ha [17]: 90%; pest or weed control at 20 g/ha [18]: 80%; pest or weed control at 20 g/ha [19]: 80%; pest or weed control at 20 g/ha [21]: 80%; pest or weed control at 5 g/ha ([22]; dosage 5 g/ha): 90%; pest or weed control at 20 g/ha [22]: 90%; pest or weed control at 20 g/ha [23]: 80%; pest or weed control at 5 g/ha [24]: 80%; pest or weed control at 20 g/ha [24]: 90%; pest or weed control at 5 g/ha ([25]; 5 g/ha): 90%; pest or weed control at 20 g/ha ([25]; 20 g/ha): 90%
